The record followed here is US20260306506A1, “PYRIDO[4,3-D]PYRIMIDINE COMPOUNDS” (Pfizer Inc., priority 2023, published 2026).

The target of one test is T1, WT GTPγS KRAS (aa1-185) (Homo sapiens, UniProt P01116).
T1 construct: wild-type (WT) KRASGDP (aa1-185); made in house
Briefly: SPR binding (Biacore), GTPγS-loaded WT KRAS. As to conditions: for Kd: 10° C., geometric mean when n>1, read-out: KRasGTPgS SPR KD; for KRasGTPgS SPR t1/2: dissociative half-life, t1/2=0.693/koff. The source says:
(§1) No additional regeneration was used.
(§2) Compound dissociation was monitored for at least 3600 seconds. […] No additional regeneration was used.
A general note: SPR reads the build-up and loss of mass on a sensor chip optically.

Test [1] has as its target T2, G12D GTPγS KRAS (aa1-185) (Homo sapiens, UniProt P01116, G12D).
T2 construct: G12DGDP KRAS (aa1-185); made in house
Briefly: SPR binding (Biacore), GTPγS-loaded KRAS G12D. The following applies: for Kd: 10° C., geometric mean when n>1, read-out: KRasGTPgS G12D SPR KD; for KRasGTPgS G12D SPR t1/2: dissociative half-life, t1/2=0.693/koff.
Text: as §1, §2

For test [2], the target named is T3, G12C GTPγS KRAS (aa2-184) (Homo sapiens, UniProt P01116, G12C).
T3 construct: G12CGDP KRAS (aa2-184); made in house
Description: SPR binding (Biacore), GTPγS-loaded KRAS G12C. The following applies: for Kd: 10° C., geometric mean when n>1, read-out: KRasGTPgS G12C SPR KD; for KRasGTPgS G12C SPR t1/2: dissociative half-life, t1/2=0.693/koff.
Text: as §1, §2

In test [3] the target is T4, G12V GTPγS KRAS (aa2-184) (Homo sapiens, UniProt P01116, G12V).
T4 construct: G12VGDP KRAS (aa2-184); made in house
Description: SPR binding (Biacore), GTPγS-loaded KRAS G12V. The following applies: for Kd: 10° C., geometric mean when n>1, read-out: KRasGTPgS G12V SPR KD; for KRasGTPgS G12V SPR t1/2: dissociative half-life, t1/2=0.693/koff.
Text: as §1, §2

Test [4] has as its system PANC08.13 (pancreatic cancer cell line). Description: KRAS Cell Titer Glo (CTG) viability assay, Panc08.13. It counts as cell-based. The following applies: Homo sapiens, PANC-08-13, 168 h, Panc08.13, 7-day; geometric mean when n>1. The source says:
(§3) The CellTiter-Glo® (CTG) Luminescent Cell Viability Assay is a homogeneous method of determining the number of viable cells in culture based on quantitation of the ATP present, an indicator of metabolically active cells. The CTG is designed for use with multi-well formats, making it ideal for automated high-throughput screening (HTS), cell proliferation and cytotoxicity assays. The homogeneous assay procedure involves adding the single reagent (CellTiter-Glo® Reagent) directly to cells cultured in serum-supplemented medium. Cell washing, removal of medium and multiple pipetting steps are not required. The system detects as few as 15 cells per well in a 384-well format in 10 minutes after adding reagent and mixing.
(§4) Cells are grown in humidified 5% CO2 incubator at 37° C. using the culture conditions outlined below. All cell culture media reagents were purchased from Gibco. Cell lines purchased from ATCC: H358 (non-small cell lung cancer cell line), SW620 (colorectal cancer cell line), PANC08.13 (RPM11640+10% FBS+10 units/ml Insulin, pancreatic cancer cell line). Test and control compounds are dispensed as nanoliter drops according to desired final concentrations in 0.1% DMSO using Echo Acoustic Dispenser onto 384 assay plates (Corning, Cat #3764) prior to cell seeding. Cells were seeded in 40 μL volume per well at the following cell densities (cells per well): H358 (300), SW620 (750), PANC 08.13 (600). Cells are incubated in the presence of compound for 7-days. Viability is determined on Day 7 using CellTiter-Glo® (CTG) Luminescent Cell Viability Assay (Promega). CTG is added to a final volume of 20 μl per well and incubated at room temperature for 15 minutes before luminescence is captured using an EnVision Reader with LUM384 US protocol. Data is analyzed using Activity Base to determine compound response and will be represented either as a percent effect (PCTEFF) or percent control (PCTOCTL) as described: Zero percent effect control (ZPE) (Negative control)—100% DMSO. Hundred percent effect (HPE) (Positive control)—1 μM Trametinib (GSK1120212, MEK inhibitor) (4 nl of 10 mM and 36 nl of DMSO per well). The following equations/nomenclature are used (% Effect; PCTEFF) and (% of Control; PCTOCTL): PCTEFF: 100*(Raw_Data_Value−HPE/ZPE−HPE), PCTOCTL: 100*Raw_Data_Value/User_Defined_Array), where the User_Defined_Array is either summarized HPE or ZPE.
A general note: ATP-based viability assays read luminescence as a measure of living cells.

The subject of test [5] is H358 (non-small cell lung cancer cell line). Description: KRAS Cell Titer Glo (CTG) viability assay, H358. As to conditions: Homo sapiens, NCI-H358, 168 h, H358, 7-day; geometric mean when n>1. It counts as cell-based.
Text: as §3, §4

Test [6] relates to SW620 (colorectal cancer cell line). Briefly: KRAS Cell Titer Glo (CTG) viability assay, SW620. It counts as cell-based. As to conditions: Homo sapiens, SW-620, 168 h, SW620, 7-day; geometric mean when n>1.
Text: as §3, §4

Test [7] has as its system KRAS G12C, KRAS G12D, and KRAS G12V receptors. Description: SPR binding, summary statement for KRAS mutants. As to conditions: alkylidenyl and/or haloalkylidenyl on R^1; statement in words.
Text: as §1, §2

Test [8] concerns pancreatic cancer, non-small cell lung cancer, and colorectal cancer. Description: CTG assay, summary statement for cancer cell lines. It counts as cell-based. The following applies: alkylidenyl and/or haloalkylidenyl on R^1; statement in words.
Text: as §3
Cells are grown in humidified 5% CO2 incubator at 37° C. using the culture conditions outlined below. All cell culture media reagents were purchased from Gibco. […] Viability is determined on Day 7 using CellTiter-Glo® (CTG) Luminescent Cell Viability Assay (Promega). CTG is added to a final volume of 20 μl per well and incubated at room temperature for 15 minutes before luminescence is captured using an EnVision Reader with LUM384 US protocol. Data is analyzed using Activity Base to determine compound response and will be represented either as a percent effect (PCTEFF) or percent control (PCTOCTL) as described: Zero percent effect control (ZPE) (Negative control)—100% DMSO. […]

Test [9] concerns the target T5, wild-type (WT) KRAS GDP (aa1-185) (Homo sapiens, UniProt P01116).
T5 construct: wild-type (WT) KRASGDP (aa1-185); made in house
Description: SPR binding (Biacore), GDP-loaded WT KRAS. As to conditions: 10° C., geometric mean when n>1.
Text: as §1, §2

In the next test the target is G12D GDP KRAS (aa1-185) (Homo sapiens, UniProt P01116, G12D). Briefly: biochemical.
In a further test the target is G12C GDP KRAS (aa2-184) (Homo sapiens, UniProt P01116, G12C). Description: biochemical.
The next test concerns the target G12V GDP KRAS (aa2-184) (Homo sapiens, UniProt P01116, G12V). Description: biochemical.

Description for G12C GDP KRAS (aa2-184): (§5) The binding affinity and kinetics were measured by Surface Plasmon Resonance (SPR) using Biacore 8K or 8K+ (Cytiva, Marlborough, MA) instruments. Recombinant, C-terminal site-specific biotinylated, wild-type (WT) KRASGDP (aa1-185), G12DGDP KRAS (aa1-185), G12CGDP KRAS (aa2-184), G12VGDP KRAS (aa2-184), WT HRASGDP (aa2-184) and WT NRASGDP (aa2-185) proteins were purified in presence of 1 μM GDP. The GDP-loaded KRAS proteins then went through nucleotide exchange with GTPγS (a non-hydrolysable analog of GTP) in the presence of alkaline phosphatase beads to obtain WTGTPγS KRAS (aa1-185), G12DGTPγS KRAS (aa1-185), G12CGTPγS KRAS (aa2-184), G12VGTPγS KRAS (aa2-184), WT HRASGTPγS (aa2-184) and WT NRASGTPγS (aa2-185). Binding measurements were performed parallelly in sets of either WT/G12D/G12C/G12V KRAS or WT K/H/N RAS proteins in GDP- and/or GTPγS-loaded forms, respectively.
(§6) Biacore instrument was desorbed and docked with a Series S Sensor Chip SA. […] Compound binding kinetics were measured in either multi-cycle or single-cycle kinetic format.
(§7) A 2-fold, 10-point serial dilution of test compounds was set-up in a 96-well microplate (Greiner; Cat #650101) with a top concentration of either 10 μM or 100 μM. Binding kinetics was measured at 10° C. by injecting serial dilution of compounds onto both reference and RAS immobilized channels at a flow rate of 100 μL/min and association time of 90 seconds. Compound dissociation was monitored for at least 400 seconds during each cycle. […]
(§8) A 3-fold, 6-point serial dilution of compounds was set-up in a deep 96-well microplate (Greiner Bio; Cat #780201) with the highest concentration of 1 μM (concentration range: 0.004-1 μM). Binding kinetics was measured at 10° C. by injecting serial dilutions of compounds in increasing order onto reference as well as RAS immobilized channels at a flow rate of 100 μL/min and association time of 120 seconds. Compound dissociation was monitored for at least 3600 seconds. […]
(§9) Both MCK and SCK data were processed and analyzed using Biacore Insight evaluation software (Cytiva, Marlborough, MA)). […]
Description for G12D GDP KRAS (aa1-185): as §5, §6, §7, §8, §9
Description for G12V GDP KRAS (aa2-184): as §5, §6, §7, §8, §9

On to `C#Cc1c(F)ccc2cc(O)cc(-c3nc4c5c(nc(OC[C@@]67CCCN6C/C(=C/F)C7)nc5c3F)N3CCCOC[C@H]3CO4)c12` [Example 34, 5-ethynyl-6-fluoro-4-[(8aS)-4-fluoro-2-{[(2E,7aS)-2-(fluoromethylidene)tetrahydro-1H-pyrrolizin-7a(5H)-yl]methoxy}-8a,9,12,13-tetrahydro-8H,11H-7,10-dioxa-1,3,6,13a-tetraazanaphtho[1,8-ab]heptalen-5-yl]naphthalen-2-ol], for which the Kd (in general, the concentration at which binding is half-saturated) at WT GTPγS KRAS (aa1-185) is less than 0.0106 nM; in test [1], less than 0.0061 nM; in [2], less than 0.0145 nM; in test [3] it was less than 0.0097 nM. For the same molecule, the “KRasGTPgS SPR t1/2” value at WT GTPγS KRAS (aa1-185) is given as more than 192.7 h. The “KRasGTPgS G12D SPR t1/2” value in test [1] is on record as more than 192.7 h. Besides, the “KRasGTPgS G12C SPR t1/2” value in test [2] is given as more than 192.7 h. Further, the “KRasGTPgS G12V SPR t1/2” value in test [3] is recorded as more than 192.7 h. The IC50 – broadly, the concentration that inhibits the measured activity by half – in [4] was less than 0.5 nM; in test [5], 1.2 nM; in test [6], 2.3 nM. In test [7], the binding affinities entry is listed as “may enhance”. For the same molecule, the “cellular activities against certain tumors” value in test [8] is “may enhance”.
In the case of `C#Cc1c(F)ccc2cc(O)cc(-c3nc4c5c(nc(OC[C@@]67CCCN6CC(=C)C7)nc5c3F)N3CCCC[C@H]3CO4)c12` [Example 36, 5-ethynyl-6-fluoro-4-[(8aS)-4-fluoro-2-{[(7aS)-2-methylidenetetrahydro-1H-pyrrolizin-7a(5H)-yl]methoxy}-8,8a,9,10,11,12-hexahydro-7-oxa-1,3,6,12a-tetraazabenzo[4,5]cyclohepta[1,2,3-de]naphthalen-5-yl]naphthalen-2-ol], the Kd in test [9] was 0.04 nM; on WT GTPγS KRAS (aa1-185) it was 0.475 nM; in [1] it was 0.404 nM; in test [2] it was 0.372 nM; in test [3], 0.316 nM; at G12D GDP KRAS (aa1-185), 0.289 nM. For the same molecule, the values for the Kd at G12C GDP KRAS (aa2-184) and on G12V GDP KRAS (aa2-184) were 0.067 nM and 0.286 nM, respectively. The “KRasGTPgS SPR t1/2” value at WT GTPγS KRAS (aa1-185) was 6.0 h. The “KRasGTPgS G12D SPR t1/2” value in test [1] came out at 3.6 h. Further, the “KRasGTPgS G12C SPR t1/2” value in [2] amounted to 11.0 h. For the same molecule, the “KRasGTPgS G12V SPR t1/2” value in test [3] is recorded as 8.9 h. Further, the IC50 worked out at 2.7 nM in test [4], 13.1 nM in test [5] and 18.7 nM in test [6].
`C#Cc1c(F)ccc2cc(O)cc(-c3nc4c5c(nc(OC[C@@]67CCCN6CC(=C)C7)nc5c3F)N(CC)CCO4)c12` [Example 37, 4-(10-ethyl-4-fluoro-2-{[(7aS)-2-methylidenetetrahydro-1H-pyrrolizin-7a(5H)-yl]methoxy}-9,10-dihydro-8H-7-oxa-1,3,6,10-tetraazacyclohepta[1,2,3-de]naphthalen-5-yl)-5-ethynyl-6-fluoronaphthalen-2-ol]: the Kd was 0.015 nM in test [9]; 3.5 nM at WT GTPγS KRAS (aa1-185); 1.27 nM in [1]; 3.02 nM in test [2]; 2.07 nM in [3]; 0.018 nM on G12D GDP KRAS (aa1-185). The results for the Kd on G12C GDP KRAS (aa2-184) and on G12V GDP KRAS (aa2-184) were 0.01 nM and 0.056 nM, respectively. In addition, the “KRasGTPgS SPR t1/2” value at WT GTPγS KRAS (aa1-185) turned out to be 0.3 h. The “KRasGTPgS G12D SPR t1/2” value in test [1] is reported as 0.4 h. In addition, in test [2], the “KRasGTPgS G12C SPR t1/2” value is 0.4 h. The “KRasGTPgS G12V SPR t1/2” value in test [3] is recorded as 0.4 h. For the same molecule, the IC50 in test [4] amounted to 18.3 nM; in [5], 40.5 nM; in test [6], 138 nM.
